Test results as given in PMC5727100, “Evolution of a flipped pathway creates metabolic innovation in tomato trichomes through BAHD enzyme promiscuity” (Nature Communications, 2017).

Target: T1, S. arcanum LA2172-ASAT2 (Solanum arcanum, UniProt A0A0U2QQP2)
T1 construct: pET28b, His-tag nickel purified from E. coli BL21 Rosetta
T1 sequence (A0A0U2QQP2 1-446): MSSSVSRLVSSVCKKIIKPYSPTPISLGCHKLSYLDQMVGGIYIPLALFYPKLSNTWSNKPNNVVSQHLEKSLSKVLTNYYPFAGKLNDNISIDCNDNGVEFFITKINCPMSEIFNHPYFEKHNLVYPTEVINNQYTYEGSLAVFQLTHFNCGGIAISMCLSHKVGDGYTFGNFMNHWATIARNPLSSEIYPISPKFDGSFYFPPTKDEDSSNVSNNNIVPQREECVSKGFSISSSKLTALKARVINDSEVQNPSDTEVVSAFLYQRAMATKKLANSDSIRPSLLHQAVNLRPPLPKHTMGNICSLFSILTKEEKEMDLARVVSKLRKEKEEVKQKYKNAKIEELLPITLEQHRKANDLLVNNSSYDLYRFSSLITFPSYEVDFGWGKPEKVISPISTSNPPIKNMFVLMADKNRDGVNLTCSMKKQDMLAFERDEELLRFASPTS
Assay: LC/MS product detection
Format: biochemical
Conditions: acyl-CoA donor 100 uM; acceptor 50 uM; pH 6.0, 30 C

SMILES: CC(C)CC(=O)O[C@H]1[C@H](O)[C@@H](O)[C@@H](O[C@]2(CO)O[C@H](CO)[C@@H](O)[C@@H]2O)O[C@@H]1CO [S1:5 (iC5^R4)]
- LC/MS product detection: all characterized ASAT2 proteins in this tomato subclade possessed only F-type enzymatic activities
